Results: ChEMBL document CHEMBL1201862, “PubChem BioAssay data set” (2004)
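Growth conditions: 96-well plates. Treatment: test compound, 48 hours, 5 concentrations. Analysis: linear interpolation between bracketing concentrations; unreached endpoints set to highest concentration. At the GI50, growth is halved.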 Active and inactive are the calls of the source. Rule as the data show it: active = GI50 up to about 1.1 µM and inactive = higher.

Experiments:
Assay in all cases: NCI tumour cell line growth inhibition, 48 h
UACC-62 = tested on: UACC-62
IGROV-1 = tested on: IGROV-1
CAKI-1 = tested on: CAKI-1
PC-3 = tested on: PC-3
BT-549 = tested on: BT-549
SK-MEL-5 = tested on: SK-MEL-5
MOLT-4 = tested on: MOLT-4
HT-29 = tested on: HT-29
A549 = tested on: A549
HCT-15 = tested on: HCT-15
786-0 = tested on: 786-0
U-251 = tested on: U-251
HCT-116 = tested on: HCT-116
SF-268 = tested on: SF-268
SR = tested on: SR
M14 = tested on: M14
HL-60 = tested on: HL-60
OVCAR-3 = tested on: OVCAR-3
NCI-H460 = tested on: NCI-H460
HOP-92 = tested on: HOP-92

Structure (SMILES)	GI50 (UACC-62)	GI50 (IGROV-1)	GI50 (CAKI-1)	GI50 (PC-3)	GI50 (BT-549)	GI50 (SK-MEL-5)	GI50 (MOLT-4)	GI50 (HT-29)	GI50 (A549)	GI50 (HCT-15)	GI50 (786-0)	GI50 (U-251)	GI50 (HCT-116)	GI50 (SF-268)	GI50 (SR)	GI50 (M14)	GI50 (HL-60)	GI50 (OVCAR-3)	GI50 (NCI-H460)	GI50 (HOP-92)
O=C(CCn1ccnc1[N+](=O)[O-])NCCCn1ccnc1[N+](=O)[O-]	> 100 µM (inactive)	> 100 µM (inactive)	> 100 µM (inactive)	> 100 µM (inactive)	> 100 µM (inactive)	> 100 µM (inactive)	> 100 µM (inactive)	> 100 µM (inactive)	> 100 µM (inactive)	> 100 µM	> 100 µM (inactive)	> 100 µM (inactive)	> 100 µM (inactive)	> 100 µM (inactive)	> 100 µM (inactive)	> 100 µM (inactive)	> 100 µM (inactive)	> 100 µM (inactive)	> 100 µM (inactive)	–
O=c1[nH]c2ccccc2c2oc(-c3ccccc3)nc12	88.3 µM (inactive)	> 100 µM (inactive)	18.9 µM (inactive)	> 100 µM (inactive)	31.2 µM (inactive)	30.5 µM (inactive)	26.6 µM (inactive)	> 100 µM (inactive)	47.6 µM (inactive)	> 100 µM	23.6 µM (inactive)	24.7 µM (inactive)	24 µM (inactive)	21.3 µM (inactive)	15.9 µM (inactive)	> 100 µM (inactive)	–	> 100 µM (inactive)	> 100 µM (inactive)	28.5 µM (inactive)
COc1cc2c3c(n(C)c(=O)c2cc1OC)-c1cc2c(cc1/C3=C/CCCCBr)OCO2	–	6.56 µM (inactive)	5.86 µM (inactive)	> 100 µM (inactive)	> 100 µM (inactive)	54 µM (inactive)	4.51 µM (inactive)	> 100 µM (inactive)	> 100 µM (inactive)	> 100 µM	17.1 µM (inactive)	40.9 µM (inactive)	–	37.4 µM (inactive)	1.57 µM (inactive)	32.9 µM (inactive)	30.3 µM (inactive)	–	17.8 µM (inactive)	57.7 µM (inactive)
O=C1N=C(SC(SC2=NC(=O)C3(NN2)c2ccccc2-c2ccccc23)=C(SC2=NC(=O)C3(NN2)c2ccccc2-c2ccccc23)SC2=NC(=O)C3(NN2)c2ccccc2-c2ccccc23)NNC12c1ccccc1-c1ccccc12	6.53 µM (inactive)	8.2 µM (inactive)	> 10 µM (inactive)	4.62 µM (inactive)	6.53 µM (inactive)	3.22 µM (inactive)	0.437 µM (active)	6.61 µM (inactive)	6.65 µM (inactive)	3.62 µM	9.66 µM (inactive)	–	5.55 µM (inactive)	> 10 µM (inactive)	3.24 µM (inactive)	8.71 µM (inactive)	–	–	3.33 µM (inactive)	> 10 µM (inactive)
CCCC(=O)Nc1cc(/C=C/C(=O)N2CC(CCl)c3ccc([N+](=O)[O-])cc32)n(C)c1 (stereo not given)	> 100 µM (inactive)	65 µM (inactive)	57.5 µM (inactive)	> 100 µM (inactive)	4.07 µM (inactive)	–	–	21.1 µM (inactive)	58.3 µM (inactive)	> 100 µM	62.4 µM (inactive)	> 100 µM (inactive)	56 µM (inactive)	43.7 µM (inactive)	> 100 µM (inactive)	> 100 µM (inactive)	–	> 100 µM (inactive)	–	–
COc1cc2ncnc(NS(=O)(=O)c3cc4ccccc4s3)c2cc1OC	89.1 µM (inactive)	81.5 µM (inactive)	> 100 µM (inactive)	> 100 µM (inactive)	> 100 µM (inactive)	> 100 µM (inactive)	> 100 µM (inactive)	> 100 µM (inactive)	> 100 µM (inactive)	> 100 µM	> 100 µM (inactive)	> 100 µM (inactive)	> 100 µM (inactive)	> 100 µM (inactive)	> 100 µM (inactive)	> 100 µM (inactive)	–	> 100 µM (inactive)	> 100 µM (inactive)	34 µM (inactive)
CC1=CC[C@@H]2[C@@H](CC[C@@]2(C)O)C(C)(C)[C@H]1CC[C@@H]1[C@@]2(C)CCC(=O)C(C)(C)O[C@@H]2CC[C@]1(C)O	16.1 µM (inactive)	28.9 µM (inactive)	36.1 µM (inactive)	29.4 µM (inactive)	19 µM (inactive)	17.2 µM (inactive)	20.7 µM (inactive)	> 10 µM (inactive)	24.7 µM (inactive)	14.9 µM	24.7 µM (inactive)	31.9 µM (inactive)	19.9 µM (inactive)	29.9 µM (inactive)	19 µM (inactive)	25.3 µM (inactive)	16.9 µM (inactive)	37.7 µM (inactive)	17.7 µM (inactive)	–
